Test [1] relates to H4. As to the kind of experiment: Luminescence Cell-Based Dose Response HTS to Identify Activators of 5'UTR Stem-Loop Driven Prion Protein mRNA Translation in H4 Neuroglioblastoma Cells. [Related pubchem assays: 1829 (Project Summary), 1814 (Primary HTS)]. As to conditions: Homo sapiens. Format: functional.
Test [2] in a line: Luminescence Cell-Based Dose Response HTS to Identify Activators of Luciferase Translation or Activity in H4 […] Cells. [Related pubchem assays: 1829 (Project Summary), 1814 (Primary HTS)]. Format: functional.
The nature of test [3]: Luminescence Cell-Based Dose Confirmation HTS to Identify Activators of 5'UTR Stem-Loop Driven Alpha-Synuclein mRNA Translation in H4 Neuroglioblastoma Cells. [Related pubchem assays: 1829 (Project Summary), 1814 (Primary HTS)]. Format: functional.
Test [4] concerns the target T1, Polyadenylate-binding protein 1 (Homo sapiens, UniProt P11940). Put plainly: MLLE binding blockers, Cy5 peptide tracer – biochemical, fluorescence polarization, Cy5-PAM2 peptide, secondary, miRNA deadenylation inhibitor project, dose response (AID 602260). Format: functional. As to conditions: read-out: IC50_Mean.
Test [5] has as its target T1, Polyadenylate-binding protein 1. Put plainly: MLLE domain peptide-binding blockers, IC50 – biochemical, fluorescence polarization, FITC-PAM2 peptide, dose response (AID 602259). As to conditions: read-out: IC50_Mean. Format: functional. (Fluorescence polarisation rises when a labelled molecule tumbles more slowly, as on binding a larger partner.)
Test [6] addresses Cytochrome P450 3A4 (Homo sapiens, UniProt P08684).
The target in test [7] is Cytochrome P450 2D6 (Homo sapiens, UniProt P10635).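 Note: CYP2D6 member of a cytochrome P450 panel assay.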
Test [8] deals with H9c2. As to the kind of experiment: cells. Format: functional, cell-based. As to conditions: Rattus norvegicus, H9c2, Myocardium.
The target of test [9] is Cytochrome P450 2C19 (Homo sapiens, UniProt P33261). Put plainly: Cytochrome panel assay with activity outcomes. Panel member name: p450-cyp2c19 Compounds with AC50 equal or less than 10 uM are considered active. Format: functional. As to conditions: read-out: AC50.
In test [10] the test system is INS1. As to the kind of experiment: INS-1E survival protection against cytokine death – cell-based, luminescence, retest, dose response (AID 449756).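 Note: cell death triggered by IL-1 beta plus TNF-alpha plus IFN-gamma mixture; protective hits raise ATP signal compared with cytokine alone wells.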 Format: functional. As to conditions: Rattus norvegicus.
Test [11] has as its target T2, Protein RecA (Mycobacterium tuberculosis, UniProt P9WHJ3).
T2 sequence (P9WHJ3 whole entry): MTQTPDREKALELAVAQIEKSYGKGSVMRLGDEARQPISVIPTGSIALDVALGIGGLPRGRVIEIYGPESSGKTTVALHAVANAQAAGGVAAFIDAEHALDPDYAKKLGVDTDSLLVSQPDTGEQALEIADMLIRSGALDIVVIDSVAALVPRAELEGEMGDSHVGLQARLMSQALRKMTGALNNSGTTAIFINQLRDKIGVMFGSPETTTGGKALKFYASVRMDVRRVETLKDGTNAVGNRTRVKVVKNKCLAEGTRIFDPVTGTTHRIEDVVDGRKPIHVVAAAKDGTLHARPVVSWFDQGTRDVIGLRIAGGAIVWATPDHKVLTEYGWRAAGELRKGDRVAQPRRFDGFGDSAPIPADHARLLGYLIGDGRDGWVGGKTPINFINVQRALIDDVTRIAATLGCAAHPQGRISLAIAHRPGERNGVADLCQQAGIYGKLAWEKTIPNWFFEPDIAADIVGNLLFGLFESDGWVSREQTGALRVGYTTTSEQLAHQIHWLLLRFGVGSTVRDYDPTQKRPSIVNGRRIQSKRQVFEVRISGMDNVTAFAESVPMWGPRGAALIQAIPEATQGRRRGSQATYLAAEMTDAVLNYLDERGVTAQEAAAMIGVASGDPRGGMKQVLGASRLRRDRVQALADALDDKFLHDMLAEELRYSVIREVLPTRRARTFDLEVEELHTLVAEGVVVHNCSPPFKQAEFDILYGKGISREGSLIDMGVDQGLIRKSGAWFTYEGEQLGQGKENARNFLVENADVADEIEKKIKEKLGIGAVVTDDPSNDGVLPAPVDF
Put plainly: Fluorescence Cell-Free Homogeneous Dose Retest to Identify Inhibitors of RecA-Intein Splicing Activity. [Related pubchem assays (depositor defined):AID2097, AID2223, AID489010, AID492950]. Format: functional.

Test [12] deals with T3, Heat shock factor protein 1 (Mus musculus, UniProt P38532).
T3 sequence (P38532 whole entry): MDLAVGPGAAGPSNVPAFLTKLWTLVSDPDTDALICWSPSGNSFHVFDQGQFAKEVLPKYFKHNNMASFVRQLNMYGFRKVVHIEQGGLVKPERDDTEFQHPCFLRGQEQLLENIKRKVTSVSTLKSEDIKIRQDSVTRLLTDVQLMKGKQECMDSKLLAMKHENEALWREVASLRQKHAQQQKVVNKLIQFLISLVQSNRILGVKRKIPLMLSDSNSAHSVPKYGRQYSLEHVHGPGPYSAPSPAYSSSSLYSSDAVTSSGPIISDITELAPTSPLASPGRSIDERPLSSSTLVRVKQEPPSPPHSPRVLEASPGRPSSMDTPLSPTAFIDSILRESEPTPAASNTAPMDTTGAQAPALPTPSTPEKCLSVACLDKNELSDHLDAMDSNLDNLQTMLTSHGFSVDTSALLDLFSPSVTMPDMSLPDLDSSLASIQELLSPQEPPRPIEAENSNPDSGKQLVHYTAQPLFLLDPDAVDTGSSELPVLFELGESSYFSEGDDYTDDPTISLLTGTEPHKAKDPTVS
Put plainly: enhancement of HSF1-driven luciferase signal – cell-based, NIH3T3, luminescence, dose retest, confirmation (AID 435004).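 Note: stress induced by proteasome inhibitor MG132 added 30 min after compound; luciferase reporter driven by HSF1 response element in NIH3T3 cells; actives raise luminescence as potentiators of the MG132 stress response.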 Format: functional.

The target in test [13] is Cytochrome P450 2C9 (Homo sapiens, UniProt P11712).

Results on 38 compounds are retold here after ChEMBL document CHEMBL1201862, “PubChem BioAssay data set” (2004).

The source made the active and inactive calls.

T1 sequence (P11940 whole entry, the tested form may be a part): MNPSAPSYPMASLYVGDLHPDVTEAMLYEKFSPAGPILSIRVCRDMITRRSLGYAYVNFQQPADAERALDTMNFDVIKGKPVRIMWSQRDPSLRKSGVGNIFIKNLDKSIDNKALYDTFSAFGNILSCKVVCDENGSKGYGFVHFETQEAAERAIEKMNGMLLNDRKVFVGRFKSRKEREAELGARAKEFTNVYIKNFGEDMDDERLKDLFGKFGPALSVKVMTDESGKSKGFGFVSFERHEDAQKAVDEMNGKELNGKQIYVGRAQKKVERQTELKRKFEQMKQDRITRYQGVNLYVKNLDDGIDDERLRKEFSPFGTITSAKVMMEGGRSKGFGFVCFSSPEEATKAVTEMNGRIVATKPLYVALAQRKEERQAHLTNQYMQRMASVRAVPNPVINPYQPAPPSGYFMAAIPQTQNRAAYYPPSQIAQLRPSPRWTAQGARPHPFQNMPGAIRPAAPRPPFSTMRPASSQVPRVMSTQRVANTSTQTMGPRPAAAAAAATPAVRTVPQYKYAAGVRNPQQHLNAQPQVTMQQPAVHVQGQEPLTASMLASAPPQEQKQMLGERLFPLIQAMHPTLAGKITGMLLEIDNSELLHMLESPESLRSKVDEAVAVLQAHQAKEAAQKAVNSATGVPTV
Sequence of Cytochrome P450 3A4 (P08684 whole entry): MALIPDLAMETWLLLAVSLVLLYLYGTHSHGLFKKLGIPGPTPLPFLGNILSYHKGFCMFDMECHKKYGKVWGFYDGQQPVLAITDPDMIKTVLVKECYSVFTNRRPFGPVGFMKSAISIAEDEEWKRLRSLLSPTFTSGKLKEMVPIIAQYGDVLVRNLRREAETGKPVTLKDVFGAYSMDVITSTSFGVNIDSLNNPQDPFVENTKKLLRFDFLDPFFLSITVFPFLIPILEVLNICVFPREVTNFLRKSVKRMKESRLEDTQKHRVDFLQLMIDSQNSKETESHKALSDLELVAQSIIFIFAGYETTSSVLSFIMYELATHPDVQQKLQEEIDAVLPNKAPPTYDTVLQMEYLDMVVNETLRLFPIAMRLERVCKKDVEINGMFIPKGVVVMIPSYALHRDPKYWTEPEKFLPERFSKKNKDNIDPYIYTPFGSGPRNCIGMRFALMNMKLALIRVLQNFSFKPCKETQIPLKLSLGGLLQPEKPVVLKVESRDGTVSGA
Sequence of Cytochrome P450 2C19 (P33261 whole entry): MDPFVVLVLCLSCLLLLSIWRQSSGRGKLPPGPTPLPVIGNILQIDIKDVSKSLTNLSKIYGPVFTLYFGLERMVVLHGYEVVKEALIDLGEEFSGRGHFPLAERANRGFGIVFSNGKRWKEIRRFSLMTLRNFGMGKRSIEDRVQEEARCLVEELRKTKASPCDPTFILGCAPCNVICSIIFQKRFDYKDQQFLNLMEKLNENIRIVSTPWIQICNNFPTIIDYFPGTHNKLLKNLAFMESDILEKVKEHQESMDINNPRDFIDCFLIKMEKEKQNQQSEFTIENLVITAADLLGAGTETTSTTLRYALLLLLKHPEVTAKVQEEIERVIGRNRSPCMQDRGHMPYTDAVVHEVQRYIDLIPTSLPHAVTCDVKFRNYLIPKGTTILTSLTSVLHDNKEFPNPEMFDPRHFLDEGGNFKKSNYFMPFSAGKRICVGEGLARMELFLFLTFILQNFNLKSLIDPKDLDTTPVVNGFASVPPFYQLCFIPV
Sequence of Cytochrome P450 2D6 (P10635 whole entry): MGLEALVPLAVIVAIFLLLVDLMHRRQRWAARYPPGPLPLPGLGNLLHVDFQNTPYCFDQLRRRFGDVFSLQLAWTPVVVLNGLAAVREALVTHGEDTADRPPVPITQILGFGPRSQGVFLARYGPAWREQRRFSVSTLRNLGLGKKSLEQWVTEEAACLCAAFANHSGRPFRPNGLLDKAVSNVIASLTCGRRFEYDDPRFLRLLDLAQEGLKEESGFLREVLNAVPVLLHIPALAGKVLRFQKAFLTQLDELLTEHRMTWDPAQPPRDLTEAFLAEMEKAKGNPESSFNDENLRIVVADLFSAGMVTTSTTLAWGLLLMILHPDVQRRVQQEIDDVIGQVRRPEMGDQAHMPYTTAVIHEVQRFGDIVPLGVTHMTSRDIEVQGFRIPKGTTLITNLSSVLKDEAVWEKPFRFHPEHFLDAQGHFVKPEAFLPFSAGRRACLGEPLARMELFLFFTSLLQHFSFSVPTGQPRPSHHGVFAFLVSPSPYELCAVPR
Sequence of Cytochrome P450 2C9 (P11712 whole entry): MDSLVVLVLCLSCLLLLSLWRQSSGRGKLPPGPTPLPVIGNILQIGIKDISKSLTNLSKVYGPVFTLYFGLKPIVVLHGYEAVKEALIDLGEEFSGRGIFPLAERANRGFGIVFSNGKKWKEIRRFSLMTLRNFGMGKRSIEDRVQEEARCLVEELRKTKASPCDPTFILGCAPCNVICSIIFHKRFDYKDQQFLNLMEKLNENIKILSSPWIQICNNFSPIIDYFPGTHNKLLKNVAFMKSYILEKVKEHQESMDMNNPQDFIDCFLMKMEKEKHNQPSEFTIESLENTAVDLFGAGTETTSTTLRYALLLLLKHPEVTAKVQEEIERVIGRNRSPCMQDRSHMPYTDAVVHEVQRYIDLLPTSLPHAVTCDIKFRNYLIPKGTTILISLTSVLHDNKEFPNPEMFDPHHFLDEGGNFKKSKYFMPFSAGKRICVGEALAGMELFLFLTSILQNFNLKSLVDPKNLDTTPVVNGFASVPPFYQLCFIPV

As a reminder, the EC50 is the concentration at which the effect is half-maximal. For `Fc1ccc(N2Cc3ccsc3C=N2)cc1`, the EC50 in test [1] was > 120 µM (not active); in test [2], 23.9 µM (active); in test [3] it was 37.1 µM (active).
In the case of `CCOC(=O)c1sc(=S)n(C)c1NC(=O)c1ccccc1Cl`, the IC50 in [4] and in test [5] was > 66 µM (inactive) each time.
Take `CC1(C)CC2=NC(SCC(N)=O)=C(C#N)C3(CCCCC3)C2=C(O)C1`: the IC50 in test [4] and in test [5] was > 66 µM (inactive) in each case.
Consider `c1coc(CSc2ncnc3c2oc2ccccc23)c1`, for which the figures for the EC50 in test [1], in [2] and in [3] were 6.38 µM (active), 4.94 µM (active) and 3.52 µM (active), respectively.
Broadly, the AC50 is the concentration at which the activity in the assay is half-maximal. As for `NCCNS(=O)(=O)c1ccc(N)cc1`, in test [6], the AC50 is 5.01 µM (inconclusive).
Take `CN(C)c1ccc(/N=N\c2cccc3ccoc23)cc1`: the AC50 in [7] was 3.16 µM (inconclusive); in test [6], 3.98 µM (inconclusive).
For `c1ccc(-c2noc(C34CC5CC(CC(C5)C3)C4)n2)nc1`, the half-maximal effective concentration (EC50) in test [1] is 48 µM (active); in [2], 30.3 µM (active); in test [3] it was 0.122 µM (active).
With `Cc1ccc(C(=O)CSc2nc(O)c3ccccc3n2)cc1`, in test [8], the IC50 was > 79 µM (inactive).
With `Cc1cccc(OCCCC(=O)Nc2ccc(N3CCCCC3)cc2)c1`, the figures for the AC50 in test [9] and in test [6] were 0.355 µM (inconclusive) and 7.08 µM (inconclusive), respectively.
Regarding `O=C(CSc1nc(O)c2ccccc2n1)N1CCCCC1`, in [8], the IC50 was 10.5 µM (active).
For `COc1ccc(OC)c(NC(=O)CSC2=NCCS2)c1`, the IC50 in test [4] and in test [5] was > 66 µM (inactive) throughout.
Turning to `CCC(=O)Nc1ccc(-c2ccc(N3CCN(C)CC3)nn2)cc1`, the concentration giving a half-maximal response (EC50) in [1] was 19.2 µM (active); in test [2], 15.5 µM (active); in test [3], > 120 µM (not active).
Consider `COc1ccc(C(C)(C)C)cc1NC(=O)c1cncc(Br)c1`, for which the AC50 in test [9] is 10 µM (inconclusive); in test [6], 11.2 µM (inconclusive).
As to `C1=C(c2ccccc2)CCN(c2nc3ccccc3n3cnnc23)C1`, the IC50 in test [8] was > 79 µM (inactive).
As for `O=C(CN(Cc1ccco1)Cc1ccco1)Nc1cc(S(=O)(=O)N2CCCCC2)ccc1Cl`, the concentration at half-maximal activity (AC50) in test [10] is 7.48 µM (active).
Take `C=C(C)CN1CC[C@@]23c4c5ccc(O)c4O[C@H]2c2[nH]c4ccccc4c2C[C@]3(O)[C@@H]1C5`: the concentration at half-maximal activity (AC50) in test [9] is 3.16 µM (inconclusive); in test [6], 31.6 µM (inconclusive).
Turning to `Cc1cccc(C)c1N=C(S)Nc1ccc(Cl)c(Cl)c1`, the IC50 in test [4] and in [5] was > 66 µM (inactive) in each case.
Consider `Cc1cc2cc(CNC(=O)c3ccc(Br)o3)ccc2n1C`, for which the IC50 in test [4] and in test [5] was > 66 µM (inactive) each time.
Regarding `O=C(/C=C/c1ccco1)N1CCN(c2ncccn2)CC1`, the IC50 in test [4] and in [5] was > 66 µM (inactive) in each case.
Take `Cc1cnc(CNc2ccnc(-c3ccccc3Cl)n2)cn1`: the AC50 in test [9] was 39.8 µM (inconclusive); in test [6] it was 10 µM (inconclusive).
Turning to `O=C1NC2=C(C(=O)CCC2)C(c2ccccc2[N+](=O)[O-])N1` (stereo not drawn), the IC50 in test [4] and in [5] was > 66 µM (inactive) in each case.
As for `CCCC1c2ccc(C)n2CCN1C(=O)Nc1ccccc1Cl` (stereo not drawn), the EC50 in [1] was > 120 µM (not active); in test [2] it was 14.2 µM (active); in [3] it was 23 µM (active).
On to `CCCCCCCOC(=O)c1ccc(OC(=O)c2cccnc2)cc1`, for which the EC50 in test [11] was > 380 µM (inconclusive).
`COc1ccc(CCNc2nc(-c3cccnc3)nc3ccccc23)cc1OC`: the IC50 in test [8] is > 79 µM (inactive).
With `O=C(Nc1ccc(C(=O)N2CCOCC2)cc1)c1cnn2c(C(F)F)cc(-c3ccccc3)nc12`, in test [8], the IC50 was > 79 µM (inactive). For the same compound, in test [12], the EC50 is > 260 µM (inactive).
For the compound `O=c1c(-c2ccc3c(c2)OCCO3)coc2c(CN3CCOCC3)c(O)ccc12`, the EC50 is > 120 µM (not active) in test [1], 17.7 µM (active) in test [2] and 42.3 µM (active) in [3].
With `NN=C(S)Nc1ccc(OC(F)(F)F)cc1`, the AC50 in test [10] was > 260 µM (inactive).
Turning to `O=C(COC(=O)Cn1[nH]c(=O)c2ccccc2c1=O)NNC(=O)c1ccccc1`, the IC50 in [8] is > 79 µM (inactive).
Turning to `Oc1cc(O)cc(/C=C\c2ccc(O)c(O)c2)c1`, the results for the AC50 in test [13] and in test [6] were 31.6 µM (inconclusive) and 20 µM (inconclusive), respectively.
As to `CC(C)(C)C(=O)NC(Nc1cccc2cccnc12)C(Cl)(Cl)Cl` (stereo not drawn), the AC50 is 15.8 µM (inconclusive) in [7], 23.6 µM (active) in test [10] and 7.08 µM (inconclusive) in [6].
As to `O=C(NNC(=S)Nc1ccc(Br)cc1Cl)c1ccncc1`, the IC50 in [4] and in test [5] was > 66 µM (inactive) in each case.
Regarding `O=C(C[C@H]1C/C=C\CC[C@H](Cc2ccc(F)cc2)C(=O)O[C@H](c2ccccc2)CNC1=O)N[C@H](CO)Cc1ccccc1`, in test [8], the IC50 is 25.3 µM (active).
Regarding `Cc1cccc(N(NC(=O)C(C)(C)O)C(=O)c2ccccc2)c1`, the AC50 in [13] is 39.8 µM (inconclusive); in [6], 17.8 µM (inconclusive).
Consider `Cc1ccc(C)c(C(=O)COC(=O)Cn2[nH]c(=O)c3ccccc3c2=O)c1`, for which the IC50 in [8] is 63.5 µM (inactive).
The same measure, in the same setting: the same measure for `Cc1cc(NC(=O)COC(=O)Cn2[nH]c(=O)c3ccccc3c2=O)c([N+](=O)[O-])cc1C`: 31.7 µM (inactive).
Same read-out and setting: to `COc1cc(/C=N/NC(=O)c2ccncc2)ccc1OC(=O)c1ccccc1Cl` belongs > 79 µM (inactive); to `CCOC(=O)c1ccc(-c2ccc3ncnc(NCc4csc(C)n4)c3c2)o1`, > 79 µM (inactive).
As for `COc1cc(/C=N/NC(=O)c2cccnc2)ccc1OC(=O)c1cc(OC)c(OC)c(OC)c1`, in test [10], the AC50 is 1.1 µM (active).
